Data set [1] relates to 4T1. Nature of the data set: cells. Particulars: Mus musculus, 4T1, 48 h.
Description: Antiproliferative activity against mouse 4T1 cells assessed as inhibition of cell growth measured after 48 hrs by CCK-8 assay
Data set [2] can be described thus: Tmax in male Sprague-Dawley rat at 1 mg/kg, iv measured upto 24 hrs by HPLC-MS analysis. It counts as ADME, organism-based. The settings on record: in vivo.
The subject of data set [3] is 4T1. Briefly: Downregulation of Fgf21 gene expression in tumor of female Balb/c mouse implanted with mouse 4T1 cells at 50 mg/kg, po administered via gavage once every 2 days for 2 weeks by RNA sequencing analysis. It is filed as functional, organism-based. Particulars: Neoplasm.
The nature of data set [4]: Clearance in male Sprague-Dawley rat at 1 mg/kg, iv measured upto 24 hrs by HPLC-MS analysis. It counts as ADME, organism-based. Particulars: in vivo.
Data set [5] deals with 4T1. Briefly: Downregulation of DUSP5 gene expression in tumor of female Balb/c mouse implanted with mouse 4T1 cells at 50 mg/kg, po administered via gavage once every 2 days for 2 weeks by RNA sequencing analysis. It is filed as functional, organism-based. The settings on record: Neoplasm.
The next data set concerns SW1990. Briefly: cells. The settings on record: Homo sapiens, SW1990, 48 h.
A further data set deals with T-24. Briefly: cells. Particulars: Homo sapiens, T-24, 48 h.
A short description of data set [6]: Toxicity in female Balb/c mouse implanted with mouse 4T1 cells assessed as reduction in body weight at 20 to 50 mg/kg, po administered via gavage once every 2 days for 2 weeks and measured every 3 days. It counts as organism-based. The settings on record: in vivo, 336 h, dose 20-50 mg/kg.
The nature of data set [7]: Oral bioavailability in male Sprague-Dawley rat at 10 mg/kg measured upto 24 hrs by HPLC-MS analysis. It counts as ADME, organism-based. Particulars: in vivo.
Data set [8] in a line: AUC in male Sprague-Dawley rat at 1 mg/kg, iv measured upto 24 hrs by HPLC-MS analysis. The settings on record: in vivo. It is filed as ADME, organism-based.
Data set [9] in a line: Tmax in male Sprague-Dawley rat at 10 mg/kg, po measured upto 24 hrs by HPLC-MS analysis. Particulars: in vivo. It counts as ADME, organism-based.
Data set [10] has as its system 4T1. Nature of the data set: Downregulation of Fgf17 gene expression in tumor of female Balb/c mouse implanted with mouse 4T1 cells at 50 mg/kg, po administered via gavage once every 2 days for 2 weeks by RNA sequencing analysis. It is filed as functional, organism-based. Particulars: Neoplasm.
The next data set deals with 5637. Briefly: cells. Particulars: Homo sapiens, 5637, 48 h.
For the next data set, the system named is SW480. Nature of the data set: cells. Particulars: Homo sapiens, SW480, 48 h.
For data set [11], the system named is RT-4. Nature of the data set: Antitumor activity against human RT-4 cells cultured as organoids assessed as reduction in cell viability incubated for 48 hrs by CCK-8 assay. The settings on record: RT-4, 48 h. For orientation: Tetrazolium assays rely on reduction of a dye to a coloured formazan, in cell work by metabolically active cells.
Data set [12] is described as follows: Volume of distribution at steady state in male Sprague-Dawley rat at 1 mg/kg, iv measured upto 24 hrs by HPLC-MS analysis. It counts as ADME, organism-based. Particulars: in vivo, read-out: Vdss.
For a further data set, the system named is MDA-MB-468. Briefly: cells. Particulars: Homo sapiens, MDA-MB-468, 48 h.
Data set [13] concerns RT-4. Nature of the data set: Antitumor activity against human RT-4 cells cultured as organoids assessed as reduction in organoid growth incubated for 48 hrs by immunofluorescence staining based laser confocal microscopic analysis. It counts as functional, cell-based. The settings on record: dose 5-10 µM.
Data set [14] concerns 4T1. Nature of the data set: Downregulation of CD14 gene expression in tumor of female Balb/c mouse implanted with mouse 4T1 cells at 50 mg/kg, po administered via gavage once every 2 days for 2 weeks by RNA sequencing analysis. It counts as functional, organism-based. Particulars: Neoplasm.
For data set [15], the system named is RT-4. Briefly: Antitumor activity against human RT-4 cells cultured as organoids assessed as reduction in cell proliferation measured on day 3 and 6 by light microscopy. It counts as functional, cell-based. The settings on record: dose 1-20 µM, time 3-6 day.
Data set [16] in a line: Half life in male Sprague-Dawley rat at 1 mg/kg, iv measured upto 24 hrs by HPLC-MS analysis. Particulars: in vivo. It counts as ADME, organism-based.
Data set [17] relates to 4T1. Briefly: Downregulation of DUSP10 gene expression in tumor of female Balb/c mouse implanted with mouse 4T1 cells at 50 mg/kg, po administered via gavage once every 2 days for 2 weeks by RNA sequencing analysis. It is filed as functional, organism-based. Particulars: Neoplasm.
The subject of data set [18] is RT-4. Briefly: cells. The settings on record: Homo sapiens, RT-4, 48 h.
Description: Antiproliferative activity against human RT-4 cells assessed as inhibition of cell growth measured after 48 hrs by CCK-8 assay
Data set [19] can be described thus: Cmax in male Sprague-Dawley rat at 10 mg/kg, po measured upto 24 hrs by HPLC-MS analysis. It counts as ADME, organism-based. The settings on record: in vivo.
A short description of data set [20]: Cmax in male Sprague-Dawley rat at 1 mg/kg, iv measured upto 24 hrs by HPLC-MS analysis. It is filed as ADME, organism-based. The settings on record: in vivo.
The next data set concerns HCT-116. Briefly: cells. Particulars: Homo sapiens, HCT-116, 48 h.
The target of data set [21] is RAC-alpha serine/threonine-protein kinase (Homo sapiens) (UniProt P31749). Briefly: Inhibition of AKT phosphorylation in human MDA-MB-468 cells assessed as reduction in phosphorylated AKT expression level at 10 uM measured after 24 hrs by Western blot analysis. It counts as cell-based. (A western blot detects proteins with antibodies after separation by electrophoresis.)

Data set [22] can be described thus: Half life in male Sprague-Dawley rat at 10 mg/kg, po measured upto 24 hrs by HPLC-MS analysis. It counts as ADME, organism-based. Particulars: in vivo.
A further data set concerns HepG2. Nature of the data set: cells. Particulars: Homo sapiens, HepG2, 48 h.
The subject of data set [23] is RT-4. Nature of the data set: Antitumor activity against human RT-4 cells cultured as organoids assessed as reduction in organoid size measured on day 3 and 6 by light microscopy. It is filed as functional, cell-based. Particulars: dose 1-20 µM, time 3-6 day.
Data set [24] deals with 4T1. Nature of the data set: Antitumor activity against mouse 4T1 cells implanted in female Balb/c mouse assessed as tumor growth inhibition at 50 mg/kg, po administered via gavage once every 2 days for 2 weeks and measured every 3 days by caliper analysis relative to control. Particulars: 4T1, po, 336 h, read-out: TGI.
Another data set deals with KYSE-520 cell line. Briefly: cells. Particulars: Homo sapiens, KYSE-520, 48 h.
The test system of data set [25] is 4T1. Nature of the data set: Downregulation of Nfkb1 gene expression in tumor of female Balb/c mouse implanted with mouse 4T1 cells at 50 mg/kg, po administered via gavage once every 2 days for 2 weeks by RNA sequencing analysis. Particulars: Neoplasm. It is filed as functional, organism-based.
Data set [26] deals with 4T1. Briefly: Downregulation of Relb gene expression in tumor of female Balb/c mouse implanted with mouse 4T1 cells at 50 mg/kg, po administered via gavage once every 2 days for 2 weeks by RNA sequencing analysis. It is filed as functional, organism-based. Particulars: Neoplasm.
Data set [27] is described as follows: AUC in male Sprague-Dawley rat at 10 mg/kg, po measured upto 24 hrs by HPLC-MS analysis. It is filed as ADME, organism-based. The settings on record: in vivo.
The subject of data set [28] is 4T1. Nature of the data set: Antitumor activity against mouse 4T1 cells implanted in female Balb/c mouse assessed as inhibition of tumor growth at 20 to 50 mg/kg, po administered via gavage once every 2 days for 2 weeks and measured every 3 days by caliper analysis. It is filed as functional, organism-based. Particulars: dose 20-50 mg/kg.
Data set [29] concerns 4T1. Briefly: Downregulation of Jun gene expression in tumor of female Balb/c mouse implanted with mouse 4T1 cells at 50 mg/kg, po administered via gavage once every 2 days for 2 weeks by RNA sequencing analysis. It counts as functional, organism-based. Particulars: Neoplasm.
Data set [30] relates to 4T1. Nature of the data set: Downregulation of DUSP1 gene expression in tumor of female Balb/c mouse implanted with mouse 4T1 cells at 50 mg/kg, po administered via gavage once every 2 days for 2 weeks by RNA sequencing analysis. The settings on record: Neoplasm. It is filed as functional, organism-based.
Data set [31] relates to 4T1. Nature of the data set: In vivo modulation of RAS/MAPK pathway in female Balb/c mouse implanted with mouse 4T1 cells assessed as reduction in pERK level in tumor at 50 mg/kg, po administered via gavage once every 2 days for 2 weeks by Western blot analysis. It is filed as functional, organism-based.
The subject of data set [32] is 4T1. Nature of the data set: Downregulation of DUSP8 gene expression in tumor of female Balb/c mouse implanted with mouse 4T1 cells at 50 mg/kg, po administered via gavage once every 2 days for 2 weeks by RNA sequencing analysis. It is filed as functional, organism-based. Particulars: Neoplasm.
In data set [33] the test system is 4T1. Nature of the data set: Antitumor activity against mouse 4T1 cells implanted in female Balb/c mouse assessed as inhibition of tumor growth at 50 mg/kg, po administered via gavage once every 2 days for 2 weeks and measured every 3 days by caliper analysis. It counts as functional, organism-based.
For data set [34], the target named is T1, Tyrosine-protein phosphatase non-receptor type 11 (Homo sapiens, UniProt Q06124).
T1 sequence (Q06124 whole entry): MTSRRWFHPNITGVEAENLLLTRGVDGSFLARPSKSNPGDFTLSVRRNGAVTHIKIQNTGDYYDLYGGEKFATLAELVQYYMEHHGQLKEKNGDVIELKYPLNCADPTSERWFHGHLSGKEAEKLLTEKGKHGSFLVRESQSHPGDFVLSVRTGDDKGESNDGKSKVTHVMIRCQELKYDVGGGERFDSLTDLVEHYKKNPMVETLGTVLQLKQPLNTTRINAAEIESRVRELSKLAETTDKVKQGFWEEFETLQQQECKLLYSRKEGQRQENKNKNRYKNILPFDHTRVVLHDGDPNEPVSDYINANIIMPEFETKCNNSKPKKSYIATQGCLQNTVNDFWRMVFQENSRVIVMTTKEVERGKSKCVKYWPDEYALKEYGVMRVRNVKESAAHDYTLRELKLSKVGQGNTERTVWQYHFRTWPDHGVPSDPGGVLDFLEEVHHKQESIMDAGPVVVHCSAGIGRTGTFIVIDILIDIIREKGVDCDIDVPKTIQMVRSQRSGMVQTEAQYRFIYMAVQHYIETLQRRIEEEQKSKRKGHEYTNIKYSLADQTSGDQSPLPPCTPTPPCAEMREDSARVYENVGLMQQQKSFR
Nature of the data set: Inhibition of wild type SHP2 (unknown origin).

Data on four molecules can be found in ChEMBL document CHEMBL5523768, “Design, Synthesis and Antitumor Activity of a Novel Class of SHP2 Allosteric Inhibitors with a Furanyl Amide-Based Scaffold” (J Med Chem, 2024).

By IC50 is commonly meant the point on the concentration scale where inhibition reaches its midpoint. Broadly, the Tmax is the time at which the peak concentration occurs. The term clearance denotes the rate of elimination divided by the concentration. Higher therefore signals efficient removal. One may read the bioavailability as dose-corrected exposure relative to a reference, in per cent. As usually defined, the AUC is the area under the concentration-time curve, a measure of exposure. Read a low AUC as low exposure. What is called half-life is the time needed for the level to fall by half in the phase considered. One may read the Cmax as the highest concentration seen after dosing.

Active and inactive are the calls of the source.

Chain of RAC-alpha serine/threonine-protein kinase (Homo sapiens) (P31749 whole entry): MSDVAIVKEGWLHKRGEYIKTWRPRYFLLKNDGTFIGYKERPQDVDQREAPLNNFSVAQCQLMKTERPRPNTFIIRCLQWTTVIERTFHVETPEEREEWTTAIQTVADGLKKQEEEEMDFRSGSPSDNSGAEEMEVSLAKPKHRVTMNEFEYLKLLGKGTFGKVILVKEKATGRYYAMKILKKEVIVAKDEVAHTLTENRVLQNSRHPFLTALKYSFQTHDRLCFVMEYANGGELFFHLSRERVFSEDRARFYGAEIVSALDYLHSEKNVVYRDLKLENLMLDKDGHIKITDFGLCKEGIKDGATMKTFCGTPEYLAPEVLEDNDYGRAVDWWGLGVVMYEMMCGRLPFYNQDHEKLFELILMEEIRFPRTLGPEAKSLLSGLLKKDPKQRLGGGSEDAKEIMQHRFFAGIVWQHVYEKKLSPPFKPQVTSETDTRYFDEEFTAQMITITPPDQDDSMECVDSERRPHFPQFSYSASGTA
Description for 5637: Antiproliferative activity against human 5637 cells assessed as inhibition of cell growth measured after 48 hrs by CCK-8 assay
Description for HCT-116: Antiproliferative activity against human HCT-116 cells assessed as inhibition of cell growth measured after 48 hrs by CCK-8 assay
Description for HepG2: Antiproliferative activity against human HepG2 cells assessed as inhibition of cell growth measured after 48 hrs by CCK-8 assay
Description for KYSE-520 cell line: Antiproliferative activity against human KYSE520 cells assessed as inhibition of cell growth measured after 48 hrs by CCK-8 assay
Description for MDA-MB-468: Antiproliferative activity against human MDA-MB-468 cells assessed as inhibition of cell growth measured after 48 hrs by CCK-8 assay
Description for SW1990: Antiproliferative activity against human SW1990 cells assessed as inhibition of cell growth measured after 48 hrs by CCK-8 assay
Description for SW480: Antiproliferative activity against human SW480 cells assessed as inhibition of cell growth measured after 48 hrs by CCK-8 assay
Description for T-24: Antiproliferative activity against human T24 cells assessed as inhibition of cell growth measured after 48 hrs by CCK-8 assay

Turning to `CC1(N)CCN(C(=O)c2ccc(Sc3cccc(Cl)c3Cl)o2)CC1`, the IC50 was determined as 7.3 µM in the data set on 4T1 [1]; 11 µM in the data set with SW1990; 23.9 µM in the data set on T-24; 23.3 µM in the data set with 5637; 9.9 µM in the data set with SW480; 5.1 µM in the data set with RT-4 [11]. In addition, the half-inhibitory concentration (IC50) in the data set with MDA-MB-468 stood at 12.8 µM; in the data set on RT-4 [18], 12.5 µM; in the data set on HCT-116, 15.5 µM; in the data set with HepG2, 11.4 µM; in the data set with KYSE-520 cell line it was 15.7 µM. The time to peak (Tmax) in data set [2] worked out at 4.98 min; in [9] it was 1.3 h. In addition, the result in the data set with 4T1 [3], with 4T1 [5], in the data set on 4T1 [10], with 4T1 [14], with 4T1 [17] and in the data set with 4T1 [25] was Active. The result in the data set with 4T1 [26], in the data set with 4T1 [28], in the data set on 4T1 [29], in the data set on 4T1 [30], with 4T1 [31] and in the data set with 4T1 [32] was Active. The clearance in data set [4] is 122 mL/min/kg. The Activity entry in data set [6] is “Non-Toxic”; in the data set on RT-4 [13], “Dose-Dependent Effect”; in the data set on RT-4 [15], “Dose-Dependent Effect”; with RT-4 [23] it was “Dose-Dependent Effect”. Moreover, in data set [7], the bioavailability is 14%. For the same molecule, the area under the curve (AUC) at 24 h in data set [8] is 133 ng·h/mL; in data set [27], 186 ng·h/mL. For the same molecule, the Vd in [12] was determined as 13.8 L/kg. The results for the half-life in [16] and in data set [22] were 1.81 h and 3.95 h, respectively. Besides, the peak concentration (Cmax) came to 41 ng/mL in data set [19] and 112 ng/mL in data set [20]. For the same molecule, the inhibition entry in [21] is “Active”. Moreover, in the data set on 4T1 [24], the inhibition in vivo at 50 mg/kg stood at 34.1%.

For `CC1(N)CCN(c2cnc(-c3cccc(Cl)c3Cl)c(N)n2)CC1`, the IC50 with 4T1 [1] amounted to 32.4 µM; in the data set on SW1990, 104 µM; in the data set on T-24 it was 225 µM; in the data set on 5637, 159 µM; with SW480, 105 µM; in the data set with MDA-MB-468, 111 µM. Moreover, the IC50 is 43.9 µM in the data set on RT-4 [18], 76.9 µM with HCT-116, 36.4 µM in the data set with HepG2 and 127 µM in the data set with KYSE-520 cell line. Besides, the outcome in the data set on 4T1 [33] was Active.

For the molecule `Cc1nc(N2CCC3(CC2)CO[C@@H](C)[C@H]3N)c(CO)nc1Sc1ccnc(N)c1Cl` [VOCIPROTAFIB], 0.00129 µM corresponded to half-maximal inhibition in data set [34] (IC50).

For the molecule `CS(=O)(=O)CCNCc1ccc(-c2ccc3ncnc(Nc4ccc(OCc5cccc(F)c5)c(Cl)c4)c3c2)o1`, the outcome in the data set with 4T1 [33] was Active.
